Data reported in PubChem BioAssay AID328 (DTP/NCI, 2004).
Values joined by “and” are separate entries in the source; they are usually repeats but may differ in a detail not shown here. Identical values can stand only once. Inconclusive results and toxic doses are left out. How the source made its calls: active means survival T/C of 150% or more; inactive means T/C below 125% in these data.

System: BDF1 mice, P388 leukemia ip, median survival T/C
Test: NCI In Vivo Anticancer Drug Screen. Data for tumor model P388 Leukemia (intraperitoneal) in B6D2F1 (BDF1) mice
Conditions: endpoint: median survival time, higher = longer survival
In short: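 Mice carrying the transplantable tumour receive compound or vehicle. Survival is followed in each arm, and the treated measure is divided by the vehicle measure.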

[1] = dose: 100.0 mg/kg/injection, schedule: Q01DX009 (ip), vehicle: Klucel (hydroxypropylcellulose) (HPC)
[2] = dose: 200.0 mg/kg/injection, schedule: Q01DX009 (ip), vehicle: Klucel (hydroxypropylcellulose) (HPC)
[3] = dose: 100.0 mg/kg/injection, schedule: Q01DX009 (ip), vehicle: saline
[4] = dose: 100.0 mg/kg/injection, schedule: Q04DX003 (ip), vehicle: saline
[5] = dose: 200.0 mg/kg/injection, schedule: Q01DX009 (ip), vehicle: saline
[6] = dose: 200.0 mg/kg/injection, schedule: Q04DX003 (ip), vehicle: saline
[7] = dose: 400.0 mg/kg/injection, schedule: Q01DX009 (ip), vehicle: saline
[8] = dose: 400.0 mg/kg/injection, schedule: Q04DX003 (ip), vehicle: saline
[9] = dose: 12.5 mg/kg/injection, schedule: Q01DX009 (ip), vehicle: saline with Tween-80
[10] = dose: 25.0 mg/kg/injection, schedule: Q01DX009 (ip), vehicle: saline with Tween-80
[11] = dose: 50.0 mg/kg/injection, schedule: Q01DX009 (ip), vehicle: saline with Tween-80
[12] = dose: 100.0 mg/kg/injection, schedule: Q01DX009 (ip), vehicle: saline with Tween-80
[13] = dose: 100.0 mg/kg/injection, schedule: Q04DX003 (ip), vehicle: saline with Tween-80
[14] = dose: 200.0 mg/kg/injection, schedule: Q04DX003 (ip), vehicle: saline with Tween-80
[15] = dose: 50.0 mg/kg/injection, schedule: Q01DX009 (ip), vehicle: water
[16] = dose: 100.0 mg/kg/injection, schedule: Q01DX009 (ip), vehicle: water
[17] = dose: 200.0 mg/kg/injection, schedule: Q01DX009 (ip), vehicle: water
[18] = dose: 400.0 mg/kg/injection, schedule: Q01DX009 (ip), vehicle: water
[19] = dose: 400.0 mg/kg/injection, schedule: Q04DX003 (ip), vehicle: saline with Tween-80

Measured: T/C

CC(=O)C1=C(O)C2(O)C(=O)c3c(c(C)c4ccc(C)c(O)c4c3O)CC2C(N)C1=O (stereo not given)
inactive: dose: 1.56 mg/kg/injection, schedule: Q01DX009 (ip), vehicle: saline with Tween-80 109 % of control | dose: 3.13 mg/kg/injection, schedule: Q01DX009 (ip), vehicle: saline with Tween-80 104 % of control | dose: 6.25 mg/kg/injection, schedule: Q01DX009 (ip), vehicle: saline with Tween-80 118 % of control

C1=CCC(C2OCC3(CO2)COC(C2CC=CCC2)OC3)CC1 (stereo not given)
inactive: [1] 96 % of control | [2] 88 % of control | dose: 400.0 mg/kg/injection, schedule: Q01DX009 (ip), vehicle: Klucel (hydroxypropylcellulose) (HPC) 88 % of control

COc1ccc(CN(CCO)C(C)=O)cc1
inactive: [3] 102 % of control | [4] 100 % of control | [5] 109 % of control | [6] 100 % of control | [7] 115 % of control | [8] 95 % of control

C1=C(c2ccccc2)[P+](c2ccccc2)(c2ccccc2)C=C(c2ccccc2)[P+]1(c1ccccc1)c1ccccc1
inactive: dose: 11.0 mg/kg/injection, schedule: Q04DX003 (ip), vehicle: saline 115 % of control | dose: 12.5 mg/kg/injection, schedule: Q04DX003 (ip), vehicle: saline 123 % of control | dose: 17.0 mg/kg/injection, schedule: Q04DX003 (ip), vehicle: saline 123 % of control | dose: 37.0 mg/kg/injection, schedule: Q04DX003 (ip), vehicle: saline 100 % of control | dose: 50.0 mg/kg/injection, schedule: Q04DX003 (ip), vehicle: saline 119 % of control

[NH-]CC([NH-])=O.[NH-]CC([NH-])=O.[Ni]
inactive: dose: 5.0 mg/kg/injection, schedule: Q01DX009 (ip), vehicle: water 105 % of control | dose: 10.0 mg/kg/injection, schedule: Q01DX009 (ip), vehicle: water 105 % of control | dose: 12.5 mg/kg/injection, schedule: Q04DX003 (ip), vehicle: water 95 % of control | dose: 25.0 mg/kg/injection, schedule: Q04DX003 (ip), vehicle: water 109 % of control

O=C(SCC(NSc1ccccc1[N+](=O)[O-])C(=O)O)c1ccccc1 (stereo not given)
inactive: dose: 12.0 mg/kg/injection, schedule: Q01DX009 (ip), vehicle: Klucel (hydroxypropylcellulose) (HPC) 105 % of control | dose: 25.0 mg/kg/injection, schedule: Q01DX009 (ip), vehicle: Klucel (hydroxypropylcellulose) (HPC) 115 % of control | dose: 50.0 mg/kg/injection, schedule: Q01DX009 (ip), vehicle: Klucel (hydroxypropylcellulose) (HPC) 115 % of control | [1] 110 % of control | [2] 105 % of control

NC(=O)NCCNC(N)=O
inactive: [3] 95 % of control | [4] 112 % of control | [5] 95 % of control | [6] 95 % of control | [7] 91 % of control | [8] 112 % of control

CC(O)(C(=O)O)c1ccccc1 (stereo not given) (tested in a mixture with another compound)
inactive: dose: 100.0 mg/kg/injection, schedule: Q01DX001 (ip), vehicle: saline 103 % of control | [4] 100 % of control | dose: 200.0 mg/kg/injection, schedule: Q01DX001 (ip), vehicle: saline 107 % of control | [6] 113 % of control | dose: 400.0 mg/kg/injection, schedule: Q01DX001 (ip), vehicle: saline 107 % of control | [8] 95 % of control

O=C(OC1CC2CCCC21)c1cc([N+](=O)[O-])cc([N+](=O)[O-])c1 (stereo not given)
inactive: dose: 100.0 mg/kg/injection, schedule: Q01DX001 (ip), vehicle: saline with Tween-80 94 % of control | dose: 200.0 mg/kg/injection, schedule: Q01DX001 (ip), vehicle: saline with Tween-80 97 % of control | dose: 400.0 mg/kg/injection, schedule: Q01DX001 (ip), vehicle: saline with Tween-80 99 % of control

CCOC(=O)c1ccc(OP(=O)(N(C)C)N(C)C)cc1
inactive: [9] 101 % of control | [10] 110 % of control | [11] 100 % of control and 119 % of control

COc1cc2c3c(c1)/C(=N\N)CCN3CCC2
inactive: [10] 110 % of control | [11] 110 % of control | dose: 50.0 mg/kg/injection, schedule: Q04DX003 (ip), vehicle: saline with Tween-80 113 % of control | [12] 100 % of control | [13] 95 % of control | [14] 100 % of control

O=C(/C=C/c1ccccc1)c1ccc2c(c1)OCO2
inactive: [15] 99 % of control | dose: 50.0 mg/kg/injection, schedule: Q04DX003 (ip), vehicle: water 99 % of control | [16] 108 % of control | dose: 100.0 mg/kg/injection, schedule: Q04DX003 (ip), vehicle: water 94 % of control | [17] 101 % of control | dose: 200.0 mg/kg/injection, schedule: Q04DX003 (ip), vehicle: water 103 % of control | [18] 108 % of control | dose: 400.0 mg/kg/injection, schedule: Q04DX003 (ip), vehicle: water 94 % of control

CCN(CC)C(=O)C1=NNc2ccc(Cl)cc2C(=O)N1C
inactive: [13] 100 % of control | [14] 109 % of control | [19] 97 % of control

CC(C)(C)c1ccc(Sc2cccc3c2C(=O)c2c(Cl)cccc2C3=O)cc1
inactive: [13] 90 % of control | [14] 88 % of control | [19] 92 % of control

CC1(C)C/C(=C\c2ccccc2)C(=O)c2ccccc21
inactive: dose: 25.0 mg/kg/injection, schedule: Q01DX009 (ip), vehicle: water 106 % of control | [15] 95 % of control | [16] 106 % of control | [17] 88 % of control | [18] 100 % of control

CNC1(c2ccccc2)C(=O)CC2CCC1C2 (stereo not given)
inactive: dose: 25.0 mg/kg/injection, schedule: Q01DX001 (ip), vehicle: Klucel (hydroxypropylcellulose) (HPC) 105 % of control | dose: 50.0 mg/kg/injection, schedule: Q01DX001 (ip), vehicle: Klucel (hydroxypropylcellulose) (HPC) 105 % of control | dose: 100.0 mg/kg/injection, schedule: Q01DX001 (ip), vehicle: Klucel (hydroxypropylcellulose) (HPC) 100 % of control

CN1c2c(nc(N)[nH]c2=O)NCC1CCNc1ccc(C(=O)NC(CCC(=O)O)C(=O)O)cc1 (stereo not given)
inactive: dose: 6.25 mg/kg/injection, schedule: Q01DX009 (ip), vehicle: other 100 % of control | dose: 12.5 mg/kg/injection, schedule: Q01DX009 (ip), vehicle: other 100 % of control | dose: 25.0 mg/kg/injection, schedule: Q01DX009 (ip), vehicle: other 109 % of control | dose: 50.0 mg/kg/injection, schedule: Q01DX009 (ip), vehicle: other 109 % of control | dose: 50.0 mg/kg/injection, schedule: Q01DX009 (ip), vehicle: saline 104 % of control | [3] 112 % of control | [4] 109 % of control | dose: 200.0 mg/kg/injection, schedule: Q01DX009 (ip), vehicle: other 118 % of control | [5] 122 % of control | [6] 109 % of control | [8] 90 % of control

NCCO/C=C/C(N)C(=O)O (stereo not given)
inactive: dose: 4.0 mg/kg/injection, schedule: Q01DX009 (ip), vehicle: saline 99 % of control | dose: 6.0 mg/kg/injection, schedule: Q01DX009 (ip), vehicle: saline 100 % of control | dose: 9.0 mg/kg/injection, schedule: Q01DX009 (ip), vehicle: saline 93 % of control | dose: 12.5 mg/kg/injection, schedule: Q01DX009 (ip), vehicle: saline 104 % of control | dose: 25.0 mg/kg/injection, schedule: Q01DX009 (ip), vehicle: saline 107 % of control

Nc1ccn(C2OC(COC3CCCCO3)C(OC3CCCCO3)C2OC2CCCCO2)c(=O)n1 (stereo not given)
inactive: dose: 50.0 mg/kg/injection, schedule: Q01DX007 (ip), vehicle: saline 108 % of control | dose: 100.0 mg/kg/injection, schedule: Q01DX007 (ip), vehicle: saline 94 % of control | [4] 90 % of control | dose: 200.0 mg/kg/injection, schedule: Q01DX007 (ip), vehicle: saline 94 % of control | [6] 86 % of control | dose: 400.0 mg/kg/injection, schedule: Q01DX007 (ip), vehicle: saline 100 % of control | [8] 104 % of control

O=c1nc(Oc2ccccc2)nc2c3ccccc3ccn12
inactive: [9] 118 % of control | [10] 102 % of control | [11] 112 % of control | [12] 114 % of control and 119 % of control | dose: 200.0 mg/kg/injection, schedule: Q01DX009 (ip), vehicle: saline with Tween-80 89 % of control
